Legend:
Format in all cases: cell-based, human
MOLM-13 = experiment: Proliferation inhibition, CellTiter-Glo, MOLM-13; details: Homo sapiens, 96 h; MOLM-13 cells, IC50 (4 days), CellTiter-Glo; read-out: MOLM-13 IC50
Excerpt: (§1) The proliferation inhibitory effect was investigated in human AML cell lines MOLM-13 (AddexBio: C0003003) and MV-4-11 (ATCC: CRL-9591), and CML cell line […] (ATCC: CRL-3343). Molm-13 is heterozygous for FLT3-ITD mutation, while MV4-11 is homozygous for FLT3-ITD (Quentmeier H, et al., Leukemia. 17(1):120-4). […] Cells were maintained in RPMI-1640 medium (ThermoFisher catalog no. 61870036) supplemented with 10% of Heat Inactivated FBS (ThermoFisher catalog no. A31605) and 1% Pen-Strep (ThermoFisher catalog no. 10378016) and cultured at 37° C. in a humidified incubator with 5% CO2. Cell lines were grown by […], and the cells were maintained in a range 70%-80% confluency.
(§2) ATP is present in all metabolically active cells and is considered as a marker for cell viability and proliferation. Metabolic cell activity was determined using the CellTiter-Glo kit (Promega catalog no. G7572), an ATP monitoring system based on the production of luminescence by the reaction of ATP with added UltraGlo® recombinant luciferase (Kawano et al., 2016, PLOS One, 8; 11(7):e0158888), according to the supplier's experimental recommendations. The assay was based on a 96 well plate format.
(§3) Test compounds were dissolved at 10 mM in DMSO (Sigma catalog no. D8418; purity≥99.9%) and stored at −20° C. Eight concentrations of test compound were assessed in duplicate in an individual test occasion in parallel in the selected cell lines. Gilteratinib and FF-10101 were used as reference compounds and tested in duplicate at eight concentrations. 100% of proliferation is represented by the untreated cells (0.2% DMSO).
(§4) On the day of the experiment, cells were quantified with the cell viability analyzer NucleoCounter (Chemometec NC-200) and diluted with fresh medium to obtain the cell density of about 10,000 cells per 200 μL medium. 200 μL of cell suspension were added into wells in the 96 well plate.
(§5) After 2 hours from seeding cells, compounds at desired concentrations were added using a D300e compound dispenser (Life Sciences Tecan D300) with shaking between each compound dispensed. Assay plates were incubated at 37° C. in a humidified incubator with 5% CO2.
(§6) On day 4 (˜96 hrs after compound addition) assay plates were equilibrated at room temperature for approximately 15 min, and then 40 μL/well of the Promega CellTiterGlo® reagent was added. Contents were mixed for 5 min on an orbital shaker to promote cell lysis, and then incubated at room temperature for an additional 10 min in the dark to stabilize the luminescent signal. Luminescence was read by using a GloMlax GM300 plate reader (Promega) using the luminescence for 96 well plate standard protocol.
(§7) Results were analyzed by GraphPad (Prism) and IC50 values were calculated by non-linear regression using four parameter-logistic equation.

MV-4-11 = experiment: Proliferation inhibition, CellTiter-Glo, MV-4-11; details: Homo sapiens, MV4-11, 96 h; MV-4:11 cells, IC50 (4 days), CellTiter-Glo; read-out: MV-4:11 IC50
Excerpt: as §1, §2, §3, §4, §5, §6, §7

K-562 = experiment: Proliferation inhibition, CellTiter-Glo, K-562; details: Homo sapiens, K562, 96 h; K-562 cells, IC50 (4 days), CellTiter-Glo; read-out: K-562 IC50
Excerpt: as §1, §2, §3, §4, §5, §6, §7

Question: C=CC(=O)N(C)[C@@H](C)C(=O)NCCc1cccc(Nc2nc(N(C)C)c(C)nc2C(N)=O)c1 [Compound 218, 5-(dimethylamino)-6-methyl-3-[3-[2-[[(2S)-2-[methyl(prop-2-enoyl)amino]propanoyl]amino]ethyl]anilino]pyrazine-2-carboxamide] was tested. Which IC50 (MOLM-13) did it give?
Answer: 10 to 100 nM

Question: And the IC50 (MV-4-11)?
Answer: 1 to 10 nM

Question: What about the IC50 (K-562) of the same molecule?
Answer: > 500 nM

Question: Which results are given for C=CC(=O)N(C)[C@@H](C)C(=O)NCCc1cccc(Nc2nc(C3CC3)c(C)nc2C(N)=O)c1 [Compound 222, 5-cyclopropyl-6-methyl-3-[3-[2-[[(2S)-2-[methyl(prop-2-enoyl)amino]propanoyl]amino]ethyl]anilino]pyrazine-2-carboxamide]?
Answer: IC50 (MOLM-13): 10 to 100 nM; IC50 (MV-4-11): 10 to 100 nM; IC50 (K-562): > 500 nM

Question: What does the source list for C=CC(=O)N(C)CC(=O)NCCc1cccc(Nc2nc(N(C)C(C)C)c(C)nc2C(N)=O)c1 [Compound 309, 5-[isopropyl(methyl)amino]-6-methyl-3-[3-[2-[[2-[methyl(prop-2-enoyl)amino]acetyl]amino]ethyl]anilino]pyrazine-2-carboxamide]?
Answer: IC50 (MOLM-13): 100 to 500 nM; IC50 (MV-4-11): 1 to 10 nM; IC50 (K-562): > 500 nM

Question: How did the IC50 (MOLM-13) turn out when C=CC(=O)N(C)[C@@H](C)C(=O)NCCc1cccc(Nc2nc(C)c(CC)nc2C(N)=O)c1 [Compound 216, 6-ethyl-5-methyl-3-[3-[2-[[(2S)-2-[methyl(prop-2-enoyl)amino]propanoyl]amino]ethyl]anilino]pyrazine-2-carboxamide] was run?
Answer: 10 to 100 nM

Question: What about the IC50 (MV-4-11) of the same molecule?
Answer: 10 to 100 nM

Question: And the IC50 (K-562)?
Answer: > 500 nM

Question: Which IC50 (MOLM-13) does the source give for [2H]C([2H])([2H])N(C(=O)C=C)[C@@H](C)C(=O)NCCc1cccc(Nc2nc(C3CC3)c(CC)nc2C(N)=O)c1 [Compound 237, 5-cyclopropyl-6-ethyl-3-[3-[2-[[(2S)-2-[prop-2-enoyl(trideuteriomethyl)amino]propanoyl]amino]ethyl]anilino]pyrazine-2-carboxamide] here?
Answer: 10 to 100 nM

Question: What about the IC50 (MV-4-11) of the same molecule?
Answer: 1 to 10 nM

Question: What about the IC50 (K-562) of the same molecule?
Answer: > 500 nM

Question: How did the IC50 (MOLM-13) turn out when C=CC(=O)N(C)[C@H](C)C(=O)NCCc1cccc(Nc2nc(C3CC3)c(CC)nc2C(N)=O)c1 [Compound 236, 5-cyclopropyl-6-ethyl-3-[3-[2-[[(2R)-2-[methyl(prop-2-enoyl)amino]propanoyl]amino]ethyl]anilino]pyrazine-2-carboxamide] was run?
Answer: 10 to 100 nM

Question: What about the IC50 (MV-4-11) of the same molecule?
Answer: 10 to 100 nM

Question: And the IC50 (K-562)?
Answer: > 500 nM

Question: What does the source list for C=CC(=O)N(C)[C@@H](C)C(=O)NCCc1cccc(Nc2nc(C3CC3)c(CC)nc2C(N)=O)c1 [Compound 208, 5-cyclopropyl-6-ethyl-3-[3-[2-[[(2S)-2-[methyl(prop-2-enoyl)amino]propanoyl]amino]ethyl]anilino]pyrazine-2-carboxamide]?
Answer: IC50 (MOLM-13): 10 to 100 nM; IC50 (MV-4-11): 1 to 10 nM; IC50 (K-562): > 500 nM

Question: Which IC50 (MOLM-13) does the source give for CCc1nc(C(N)=O)c(Nc2ccc(F)c(CCNC(=O)CN(C)C(=O)/C=C/CN3CCC3)c2)nc1C1CC1 [Compound 607, (E)-3-((3-(2-(2-(4-(azetidin-1-yl)-N-methylbut-2-enamido)acetamido)ethyl)-4-fluorophenyl)amino)-5-cyclopropyl-6-ethylpyrazine-2-carboxamide] here?
Answer: 1 to 10 nM

Question: And the IC50 (MV-4-11)?
Answer: 1 to 10 nM

Question: What about the IC50 (K-562) of the same molecule?
Answer: > 500 nM

Question: For CCc1nc(Nc2cccc(CCNC(=O)[C@H](C)N(C)C(=O)/C=C/CN(C)C)c2)c(C(N)=O)nc1C [Compound 255, 3-[3-[2-[[(2S)-2-[[(E)-4-(dimethylamino)but-2-enoyl]-methyl-amino]propanoyl]amino]ethyl]anilino]-5-ethyl-6-methyl-pyrazine-2-carboxamide], which IC50 (MOLM-13) is on record?
Answer: 10 to 100 nM

Question: And the IC50 (MV-4-11)?
Answer: 1 to 10 nM

Question: And the IC50 (K-562)?
Answer: > 500 nM

Question: CCc1nc(C(N)=O)c(Nc2cccc(CCNC(=O)[C@H](C)N(C)C(=O)/C=C/CN3CC(F)C3)c2)nc1C [Compound 240, 6-ethyl-3-[3-[2-[[(2S)-2-[[(E)-4-(3-fluoroazetidin-1-yl)but-2-enoyl]-methyl-amino]propanoyl]amino]ethyl]anilino]-5-methyl-pyrazine-2-carboxamide] was tested. Which IC50 (MOLM-13) did it give?
Answer: > 500 nM

Question: What about the IC50 (MV-4-11) of the same molecule?
Answer: 10 to 100 nM

Question: What about the IC50 (K-562) of the same molecule?
Answer: > 500 nM

Question: Which results are given for CCc1nc(C(N)=O)c(Nc2cccc(CCNC(=O)[C@H](C)N(C)C(=O)/C=C/CN(C)C)n2)nc1C1CC1 [Compound 313, 5-cyclopropyl-3-[[6-[2-[[(2S)-2-[[(E)-4-(dimethylamino)but-2-enoyl]-methyl-amino]propanoyl]amino]ethyl]-2-pyridyl]amino]-6-ethyl-pyrazine-2-carboxamide]?
Answer: IC50 (MOLM-13): 100 to 500 nM; IC50 (MV-4-11): 10 to 100 nM; IC50 (K-562): > 500 nM

Question: Which IC50 (MOLM-13) does the source give for CCc1nc(C(N)=O)c(Nc2cccc(CCNC(=O)[C@H](C)N(C)C(=O)CCCN(C)C)c2)nc1N(C)C(C)C [Compound 318, 3-[3-[2-[[(2S)-2-[4-(dimethylamino)butanoyl-methyl-amino]propanoyl]amino]ethyl]anilino]-6-ethyl-5-[isopropyl(methyl)amino]pyrazine-2-carboxamide] here?
Answer: 10 to 100 nM

Question: And the IC50 (MV-4-11)?
Answer: 1 to 10 nM

Question: What about the IC50 (K-562) of the same molecule?
Answer: > 500 nM

Question: What does the source list for C=CC(=O)N(C)[C@@H](C)C(=O)NCCc1cccc(Nc2nc(C)c(C)nc2C(N)=O)c1 [Compound 238, 5,6-dimethyl-3-[3-[2-[[(2S)-2-[methyl(prop-2-enoyl)amino]propanoyl]amino]ethyl]anilino]pyrazine-2-carboxamide]?
Answer: IC50 (MOLM-13): > 500 nM; IC50 (MV-4-11): > 500 nM; IC50 (K-562): > 500 nM

Question: Cc1nc(Nc2cccc(CCNC(=O)CN(C)C(=O)/C=C/CN(C)C)c2)c(C(N)=O)nc1C [Compound 301, 3-[3-[2-[[2-[[(E)-4-(dimethylamino)but-2-enoyl]-methyl-amino]acetyl]amino]ethyl]anilino]-5,6-dimethyl-pyrazine-2-carboxamide] was tested. Which IC50 (MOLM-13) did it give?
Answer: 10 to 100 nM

Question: What about the IC50 (MV-4-11) of the same molecule?
Answer: 10 to 100 nM

Question: What about the IC50 (K-562) of the same molecule?
Answer: > 500 nM

Question: How did the IC50 (MOLM-13) turn out when [2H]C([2H])([2H])N(C/C=C/C(=O)N(C)[C@@H](C)C(=O)NCCc1cccc(Nc2nc(N(C)C(C)C)c(CC)nc2C(N)=O)c1)C([2H])([2H])[2H] [Compound 249, (S,E)-3-((3-(2-(2-(4-(bis(methyl-d3)amino)-N-methylbut-2-enamido)propanamido)ethyl)phenyl)amino)-6-ethyl-5-(isopropyl(methyl)amino)pyrazine-2-carboxamide] was run?
Answer: < 1 nM

Question: And the IC50 (MV-4-11)?
Answer: < 1 nM

Question: What about the IC50 (K-562) of the same molecule?
Answer: > 500 nM

Question: Which IC50 (MOLM-13) does the source give for CCc1cc(C(N)=O)c(Nc2cncc(CCNC(=O)[C@H](C)N(C)C(=O)/C=C/CN(C)C)c2)nc1C1CC1 [Compound 320, 6-cyclopropyl-2-[[5-[2-[[(2S)-2-[[(E)-4-(dimethylamino)but-2-enoyl]-methyl-amino]propanoyl]amino]ethyl]-3-pyridyl]amino]-5-ethyl-pyridine-3-carboxamide] here?
Answer: 100 to 500 nM

Question: And the IC50 (MV-4-11)?
Answer: 10 to 100 nM

Question: And the IC50 (K-562)?
Answer: > 500 nM

Question: Which IC50 (MOLM-13) does the source give for CCc1nc(C(N)=O)c(Nc2cccc(CCNC(=O)C3(N(C)C(=O)/C=C/CN(C)C)CC3)c2)nc1C1CC1 [Compound 220, 5-cyclopropyl-3-[3-[2-[[1-[[(E)-4-(dimethylamino)but-2-enoyl]-methyl-amino]cyclopropanecarbonyl]amino]ethyl]anilino]-6-ethyl-pyrazine-2-carboxamide] here?
Answer: 10 to 100 nM

Question: What about the IC50 (MV-4-11) of the same molecule?
Answer: 1 to 10 nM

Question: And the IC50 (K-562)?
Answer: > 500 nM

Question: What does the source list for C=CC(=O)N(C)[C@@H](C)C(=O)NCCc1cccc(Nc2nc(N(C)C(C)C)c(C)nc2C(N)=O)c1 [Compound 231, 5-[isopropyl(methyl)amino]-6-methyl-3-[3-[2-[[(2S)-2-[methyl(prop-2-enoyl)amino]propanoyl]amino]ethyl]anilino]pyrazine-2-carboxamide]?
Answer: IC50 (MOLM-13): 10 to 100 nM; IC50 (MV-4-11): 1 to 10 nM; IC50 (K-562): > 500 nM

Question: [2H]C([2H])([2H])N(C/C=C/C(=O)N(C)[C@@H](C)C(=O)NCCc1cccc(Nc2nc(N(C)C(C)C)c(C)nc2C(N)=O)c1)C([2H])([2H])[2H] [Compound 247, (S,E)-3-((3-(2-(2-(4-(bis(methyl-d3)amino)-N-methylbut-2-enamido)propanamido)ethyl)phenyl)amino)-5-(isopropyl(methyl)amino)-6-methylpyrazine-2-carboxamide] was tested. Which IC50 (MOLM-13) did it give?
Answer: 1 to 10 nM

Question: And the IC50 (MV-4-11)?
Answer: < 1 nM

Question: What about the IC50 (K-562) of the same molecule?
Answer: > 500 nM
